Experimental data from ChEMBL document CHEMBL1201862, “PubChem BioAssay data set” (2004).
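Growth conditions: 96-well plates. Treatment: test compound, 48 hours, 5 concentrations. Analysis: linear interpolation between bracketing concentrations; unreached endpoints set to highest concentration. GI50 marks 50% less growth.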 The source made the active and inactive calls. Cut-off read from the data, not from the text of the source: active = GI50 up to about 1.1 µM and inactive = higher.

Columns and labels:
Experiment in all cases: NCI-60 cell line screen, 48 h
[1] = test system: DMS-114
[2] = test system: DMS-273
[3] = test system: HOP-18
[4] = test system: M19-MEL
[5] = test system: RXF 631
[6] = test system: XF498
[7] = test system: DLD-1
[8] = test system: SNB-78

SMILES	GI50 [1]	GI50 [2]	GI50 [3]	GI50 [4]	GI50 [5]	GI50 [6]	GI50 [7]	GI50 [8]
COc1ccc(OC)c(NCC#N)c1	> 100 µM (inactive)	> 100 µM (inactive)	> 100 µM (inactive)	> 100 µM (inactive)	> 100 µM (inactive)	> 100 µM (inactive)	–	–
COc1cc2c(c(OC)c1OC)-c1ccc(OC)c(=O)cc1[C@@H](N(C)C=O)CC2	–	0.0116 µM (active)	> 100 µM (inactive)	–	0.0244 µM (active)	0.112 µM (active)	0.0198 µM (active)	0.0135 µM (active)
CCOc1cccc2nc3cccc(C(=O)NCCN(C)C)c3nc12	1.03 µM (active)	0.582 µM (active)	3.94 µM (inactive)	1.2 µM (inactive)	2.6 µM (inactive)	0.116 µM (active)	1.05 µM (active)	1.88 µM (inactive)
CCOC(=O)C1(Br)C(c2ccccc2)NC(=O)NC1(C)Br (stereo not given)	28.9 µM (inactive)	90.2 µM (inactive)	> 100 µM (inactive)	64.1 µM (inactive)	46.6 µM (inactive)	52.2 µM (inactive)	55.7 µM (inactive)	> 100 µM (inactive)
CC(=O)OCCOCNC(=S)N/N=C/c1cc([N+](=O)[O-])ccc1O	30.7 µM (inactive)	> 100 µM (inactive)	> 100 µM (inactive)	> 100 µM (inactive)	> 100 µM (inactive)	> 100 µM (inactive)	> 100 µM (inactive)	> 100 µM (inactive)
c1ccc2c(c1)N=C(c1ccc3ccccc3c1)CC(c1cccc3ccccc13)S2 (stereo not given)	24.3 µM (inactive)	36.1 µM (inactive)	> 100 µM (inactive)	29.9 µM (inactive)	34.4 µM (inactive)	35 µM (inactive)	11.6 µM (inactive)	–
CC(=O)OCCOCNC(=S)N/N=C/c1ccc2ccccc2n1	22.6 µM (inactive)	36.1 µM (inactive)	75.9 µM (inactive)	28.6 µM (inactive)	55.6 µM (inactive)	> 100 µM (inactive)	54.1 µM (inactive)	> 100 µM (inactive)
OCC1OC(c2nc(C3=NCCCN3)cs2)C(O)C1O (stereo not given)	> 100 µM (inactive)	> 100 µM (inactive)	> 100 µM (inactive)	> 100 µM (inactive)	> 100 µM (inactive)	> 100 µM (inactive)	> 100 µM (inactive)	> 100 µM (inactive)
C=CCC1[C@@H](C(C)(C)C(C(C)=O)C(=O)C(=O)OC)OC(C(C)(C)C)N1C(=O)OC (stereo not given in full)	–	–	> 100 µM (inactive)	> 100 µM (inactive)	> 100 µM (inactive)	> 100 µM (inactive)	> 100 µM (inactive)	> 100 µM (inactive)
